{"source": "patent US8163526B2", "about": "“Ethanol production” (The University of Durham, priority 2006, dated 2012)", "key": {"Z. mobilis": {"test_system": "Z. mobilis", "assay": "overproduction of proteins in Z. mobilis in response to autoinducer (identified by mass spectrometry)", "type": "cell-based, Zymomonas mobilis", "conditions": "AI-2 produced in vitro with purified enzymes; 2 cytoplasmic and 3 secreted proteins", "description": "[…] Nature 437, […]) to avoid the toxic effects of bacteriocin production, it stimulated Z. mobilis to overproduce at least 5 proteins, 2 which were retained in the cytoplasm and 3 that were secreted. These proteins were not produced when Z. mobilis was co-cultured with the luxS-deletion strain KX1128, which lacks the LuxS enzyme that is responsible for the synthesis of 4,5-dihydroxy-2,3-pentanedione (DPD) from S-ribosylhomocysteine, which spontaneously cyclizes to form the autoinducer molecule Autoinducer-2 (AI-2).\nThe proteins overproduced in response to AI-2 were identified by mass spectrometry sequencing of tryptic-fragments. The first of the secreted proteins, ZMO1147, was identified as a homologue of the E. coli periplasmic chaperone Skp/HIpA (Walton, T A and Sousa M C (2004) Crystal structure of Skp, a prefoldin-like chaperone that protects soluble and membrane proteins from aggregation. Mol Cell. 15, 367-74). […] In E.coli the yaeT and hlpA genes are clustered. In Z. mobilis, ZMO1147 is clearly transcriptionally linked to ZMO1148, a homologue of yaeT, being directly downstream of ZMO1148, so that they share the same promoter. Consequently, both ZMO1147 and ZMO1148 must be induced by AI-2. […] Clearly, ZMO1147 must have a role above and beyond acting as a periplasmic chaperone. […]"}, "Z. mobilis cells": {"test_system": "Z. mobilis cells", "assay": "chromate assay for ethanol production by untreated and AI-2-treated Z. mobilis cells", "type": "cell-based, Zymomonas mobilis", "description": "The two overproduced cytosolic proteins were identified as enolase, ZMO1608, and pyruvate decarboxylase, ZMO1360 as illustrated in FIG. 2. These are sequential enzymes in the E-D pathway that leads to ethanol production. […] A chromate assay (e.g. 3C2H5OH+4Cr03−>2Cr2O3+3H2O) was used to asses ethanol production, monitoring colour change (e.g. at 600 nm) to determine the ethanol produced."}}, "data": [{"substance": "Autoinducer-2 [AI-2]", "values": [{"measurement": "protein overproduction in Z. mobilis (in words)", "setting": "Z. mobilis", "result": "over production of the same five proteins"}, {"measurement": "medium ethanol concentration", "setting": "Z. mobilis cells; AI-2-treated Z. mobilis, untreated 9%, FIG. 3", "result": 14.2, "unit": "%"}, {"measurement": "ethanol production (in words)", "setting": "Z. mobilis cells; AI-2-treated vs untreated Z. mobilis cells", "result": "significant increase in ethanol production"}, {"measurement": "increase in ethanol production", "setting": "Z. mobilis cells; AI-2-treated vs untreated Z. mobilis, average of two experiments, chromate assay, colour change at 600 nm", "result": 54, "unit": "%"}]}]}
